Measured values reported in patent US6737383B1, “Herbicidal oxadiazolidines” (priority 1999, dated 2004).

Columns and labels:
large crabgrass = assay: Test D large crabgrass; format: in vivo, Digitaria sanguinalis; details: Postemergence, 0 to 100 scale
goosegrass = assay: Test D goosegrass; format: in vivo, Eleusine indica; details: Postemergence, 0 to 100 scale
Green foxtail = assay: Test D green foxtail; format: in vivo; details: Postemergence, 0 to 100 scale, 0 no injury, 100 complete control
purple nutsedge = assay: Test D purple nutsedge; format: in vivo, Cyperus rotundus; details: Postemergence, 0 to 100 scale
corn = assay: Test B pre/postemergence corn; format: in vivo, Zea mays; details: for Corn plant response rating: scale of 0 to 10 where 0 is no effect and 10 is complete control
Summary of the method: (§1)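 Herbicidal effect was estimated by eye on a ten-point control scale after plants spent twelve to sixteen days in a greenhouse following soil or foliar treatment. Foliar sprays targeted plants at one to four leaves; all doses were formulated in a non-phytotoxic solvent with surfactant.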

smallflower flatsedge = assay: Test B flood test smallflower flatsedge; format: in vivo, Cyperus difformis
Summary of the method: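 Plants were grown to the 2-leaf stage before treatment with test chemical, then held in a greenhouse for twelve to sixteen days. Injury was visually rated against untreated controls on a 0–10 scale, where 0 is no effect and 10 is complete control.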

soybean = assay: Test B pre/postemergence soybean; format: in vivo, Glycine max; details: for Soybean plant response rating: scale of 0 to 10 where 0 is no effect and 10 is complete control
Summary of the method: as §1

dallisgrass = assay: Test D dallisgrass; format: in vivo, Paspalum dilatatum; details: Postemergence, 0 to 100 scale
rape = assay: Test B pre/postemergence rape; format: in vivo, Brassica napus; details: for Rape plant response rating: scale of 0 to 10 where 0 is no effect and 10 is complete control
Summary of the method: as §1

[1] = Rate 16 g/ha, 0 no injury, 100 complete control
[2] = Rate 32 g/ha, 0 no injury, 100 complete control
[3] = Rate 64 g/ha, 0 no injury, 100 complete control
[4] = Rate 125 g/ha, 0 no injury, 100 complete control
[5] = Postemergence, Rate 125 g/ha, scale 0 to 10, 0 is no effect, 10 is complete control
[6] = Preemergence, Rate 62 g/ha, scale 0 to 10 (0 no effect, 10 complete control)
[7] = Rate 500 g/ha, Postemergence, scale 0 to 10, 0 no effect, 10 complete control

CC(C)N(C(=O)n1oc(=O)n(CC2CCCO2)c1=O)c1ccc(F)cc1 (stereo not shown) [Compound 343]
0: Plant response rating, Large crabgrass (large crabgrass; [1]) | Plant response rating, Green foxtail (Green foxtail; Rate 16 g/ha) | Plant response rating, Purple nutsedge (purple nutsedge; [1]) | Plant response rating, Purple nutsedge (purple nutsedge; [2]) | Purple nutsedge plant response rating (purple nutsedge; [3]) | Purple nutsedge plant response rating (purple nutsedge; [4]) | Plant response rating, Purple nutsedge (purple nutsedge; Rate 250 g/ha) | Plant response rating, Corn (corn; [5]) | Plant response rating, Corn (corn; [6]) | Corn plant response rating (0 to 10 scale) (corn; Preemergence, Rate 125 g/ha) | Corn plant response rating (corn; Preemergence, Rate 250 g/ha) | Corn plant response rating (corn; Rate 62 g/ha, Postemergence) | Plant response rating, S. Flatsedge (smallflower flatsedge; Postemergence (flood test), Rate 125 g/ha, scale 0 to 10, 0 is no effect, 10 is complete control) | S. Flatsedge plant response rating (smallflower flatsedge; Rate 62 g/ha, Postemergence (flood test species), scale of 0 to 10 where 0 is no effect and 10 is complete control) | Plant response rating, S. Flatsedge (smallflower flatsedge; Rate 500 g/ha, listed under Postemergence (flood test species), scale 0 to 10, 0 no effect, 10 complete control) | Plant response rating, Soybean (soybean; [6]) | Soybean plant response rating (0 to 10 scale) (soybean; Preemergence, Rate 125 g/ha) | Soybean plant response rating (soybean; Preemergence, Rate 250 g/ha) | Soybean plant response rating (soybean; Preemergence, Rate 500 g/ha) | Plant response rating, Dallisgrass (dallisgrass; [1]) | Plant response rating, Rape (rape; [5]) | Plant response rating, Rape (rape; [6]) | Rape plant response rating (0 to 10 scale) (rape; Preemergence, Rate 125 g/ha) | Rape plant response rating (rape; Rate 62 g/ha, Postemergence)
40: Plant response rating, Goosegrass (goosegrass; [1])
6: Rape plant response rating (rape; Preemergence, Rate 500 g/ha)
80: Plant response rating, Goosegrass (goosegrass; [2])
100: Plant response rating, Large crabgrass (large crabgrass; [4]) | Plant response rating, Large crabgrass (large crabgrass; Rate 250 g/ha) | Plant response rating, Goosegrass (goosegrass; Rate 250 g/ha) | Plant response rating, Green foxtail (Green foxtail; Rate 32 g/ha) | Plant response rating, Dallisgrass (dallisgrass; Rate 250 g/ha)
90: Plant response rating, Large crabgrass (large crabgrass; [3]) | Plant response rating, Goosegrass (goosegrass; [3]) | Plant response rating, Goosegrass (goosegrass; [4]) | Plant response rating, Dallisgrass (dallisgrass; [3]) | Plant response rating, Dallisgrass (dallisgrass; [4])
4: Corn plant response rating (corn; Preemergence, Rate 500 g/ha) | Rape plant response rating (rape; Preemergence, Rate 250 g/ha)
1: Plant response rating, Soybean (soybean; [5]) | Soybean plant response rating (soybean; Rate 62 g/ha, Postemergence)
3: Plant response rating, Soybean (soybean; [7]) | Plant response rating, Rape (rape; [7])
2: Plant response rating, Corn (corn; [7])
30: Plant response rating, Large crabgrass (large crabgrass; [2]) | Plant response rating, Dallisgrass (dallisgrass; [2])
